Experimental data: patent US11826332B2, “Antimicrobial compositions and uses thereof” (Board of Regents, The University of Texas System, priority 2016, dated 2023)

Tests used:
[1] = test system: vancomycin resistant Enterococcus (VRE); assay: Disinfection of colonized urinary catheter external surface, transient contact; type: cell-based; conditions: in 1.5% CMC solution; transient contact exposure of a few minutes; three 1 cm catheter segments
[2] = test system: methicillin resistant Staphylococcus aureus (MRSA); assay: as above; type: cell-based; conditions: in 1.5% CMC solution; transient contact exposure of a few minutes; three 1 cm catheter segments
[3] = test system: Candida albicans (C. albicans); assay: as above; type: cell-based; conditions: in 1.5% CMC solution; transient contact exposure of a few minutes; three 1 cm catheter segments
[4] = test system: Escherichia coli (E. coli); assay: as above; type: cell-based; conditions: in 1.5% CMC solution; transient contact exposure of a few minutes; three 1 cm catheter segments
[5] = test system: Candida albicans (CA) biofilm; assay: Biofilm eradication model on silicone discs, time to complete eradication; type: cell-based; conditions: Table 2; disinfecting solutions pH 4.0-4.5; >120 = not completely eradicated within 120 minutes exposure
[6] = test system: multidrug-resistant Pseudomonas aeruginosa (PS) biofilm; assay: as above; type: cell-based; conditions: Table 2; disinfecting solutions pH 4.0-4.5; >120 = not completely eradicated within 120 minutes exposure
[7] = test system: methicillin-resistant Staphylococcus aureus (MRSA) biofilm; assay: as above; type: cell-based; conditions: Table 2; disinfecting solutions pH 4.0-4.5; >120 = not completely eradicated within 120 minutes exposure
[8] = test system: Candida glabarata (CG) biofilm; assay: as above; type: cell-based; conditions: Table 2; disinfecting solutions pH 4.0-4.5; >120 = not completely eradicated within 120 minutes exposure
MRSA biofilm = assay: Modified Kuhn's model, quantitative time-to-kill biofilm eradication; type: cell-based, Staphylococcus aureus; conditions: 60 minutes exposure
Experimental: In vitro antimicrobial assessments of PG, CAP, and PG+CAP solutions were conducted using an established time-to-kill biofilm eradication model, the modified Kuhn's model (Kuhn et al., 2002). Briefly, 1 cm diameter silicone discs, were placed into a 24-well tissue culture plate and incubated with donor human plasma at 37° C. for 24 hours. The plasma was then removed, replaced with 1 mL of 5.5×10^5 CFU of bacterial (MRSA, Pseudomonas aeruginosa) or yeast (Candida albicans) inocula and incubated at 37 C for an additional 24 hrs. Inoculum was removed and the discs were washed shaking at 100 rpm for 30 minutes in 0.9% sterile saline in order to remove any planktonic organisms. After washing, discs were exposed to 1 mL various disinfectant solutions and incubated at 37° C. for 30 min or 60 min. Saline flush solution was used a negative control. […] Resulting solutions were quantitatively cultured by plating 100 μL onto Muller-Hinton (for bacteria) or Sabouraud dextrose (for yeast) agar. […]
Statistical analyses: The Kruskal-Wallis test was used to determine whether there was a significant difference in the medians in any of the lock solutions tested. Pairwise comparisons were assessed using the Mann-Whitney U test to […] performance of PG+CAP and CAP lock solutions at specified time points. […]

[9] = CRC Handbook of Chemistry and Physics; cited from earlier work

Compound	Median recoveries, VRE [1]	Median recoveries, MRSA [2]	Median recoveries, C. albicans [3]	Median recoveries, E. coli [4]	time to complete biofilm eradication, CA [5] [min]	time to complete biofilm eradication, PS [6] [min]	time to complete biofilm eradication, MRSA [7] [min]	time to complete biofilm eradication, CG [8] [min]	reductions in viable cells in MRSA biofilm (MRSA biofilm)	pK of CAP [9]
OO [0.3% H2O2, hydrogen peroxide]	>50,000 CFU/cm of catheter	0 CFU/cm of catheter	>50,000 CFU/cm of catheter	2700 CFU/cm of catheter	–	–	–	–	–	–
O=[N+]([O-])OCC(CO[N+](=O)[O-])O[N+](=O)[O-] [0.03% nitroglycerin (GTN), glyceryl trinitrate]	–	–	–	–	>120	>120	>120	>120	–	–
CCCCCCCC(=O)O [0.4% Caprylic Acid (CAP), caprylic acid (octanoic acid)]	–	–	–	–	120	60	120	60	able to reduce, but not completely eradicate	approximately 4.8
